Values of other authors in patent US6340756B1, “Process for preparing a 2-(2-amino-1, 6-dihydro-6-oxo-purin-9-yl)methoxy-1,3-propanediol derivative” (Syntex (U.S.A.) Inc., priority 1996, dated 2002).

Key:
[1] = rats, urinary recovery of acyclovir, Beauchamp et al. 1992
[2] = EP 0 694 547 A
[3] = EP 0 694 547 A; remark: listed apart in the source
[4] = EP 0 308 065 A2

Structure (SMILES) | amount of the parent drug (acyclovir) in the urine compared with acyclovir itself [1] | also measured
CC[C@H](N)C(=O)OCCOCn1cnc2c(=O)[nH]c(N)nc21 | greater amounts of the parent drug in the urine than acyclovir itself | –
CC(N)C(=O)OCCOCn1cnc2c(=O)[nH]c(N)nc21 (racemic) [D,L-alanyl] | greater amounts of the parent drug in the urine than acyclovir itself | –
CC(C)C(N)C(=O)OCCOCn1cnc2c(=O)[nH]c(N)nc21 (racemic) [D,L-valyl] | greater amounts of the parent drug in the urine than acyclovir itself | –
CCC(C)C(N)C(=O)OCCOCn1cnc2c(=O)[nH]c(N)nc21 (racemic) [DL-isoleucyl] | greater amounts of the parent drug in the urine than acyclovir itself | –
CC(C)[C@@H](N)C(=O)OCC(CO)OCn1cnc2c(O)nc(N)nc21 (stereo partly drawn) [2-(2-amino-1,6-dihydro-6-oxo-purin-9-yl)methoxy-3-hydroxy-1-propyl-L-valinate] | – | oral absorption [2]: improved oral absorption; toxicity [3]: low toxicity
C[C@H](N)C(=O)OCCOCn1cnc2c(=O)[nH]c(N)nc21 [L-alanyl] | greater amounts of the parent drug in the urine than acyclovir itself | –
CC[C@H](C)[C@H](N)C(=O)OCCOCn1cnc2c(=O)[nH]c(N)nc21 [L-isoleucyl] | greater amounts of the parent drug in the urine than acyclovir itself | –
CSCC[C@H](N)C(=O)OCCOCn1cnc2c(=O)[nH]c(N)nc21 [L-methionyl] | greater amounts of the parent drug in the urine than acyclovir itself | –
Nc1nc2c(ncn2COCCOC(=O)C2CCCN2)c(=O)[nH]1 [L-prolyl] | greater amounts of the parent drug in the urine than acyclovir itself | –
CC(C)[C@H](N)C(=O)OCCOCn1cnc2c(=O)nc(N)[nH]c21 [L-valyl] | greater amounts of the parent drug in the urine than acyclovir itself | rank as prodrug among the esters investigated ([1]; eighteen amino acid esters): best prodrug
NCC(=O)OCCOCn1cnc2c(=O)[nH]c(N)nc21 [glycyl] | greater amounts of the parent drug in the urine than acyclovir itself | –
CC(C)[C@H](N)C(=O)OCCOCn1cnc2c(=O)nc(N)[nH]c21 [valine ester of acyclovir] | – | absorption from the gut after oral administration, compared with other esters and acyclovir [4]: large increase in absorption
